Here are results for four molecules from publication PMC11758266, “Lipid-Modulated, Graduated Inhibition of N-Glycosylation Pathway Priming Suggests Wide Tolerance of ER Proteostasis to Stress” (ACS Central Science, 2024).

In assay [1] the target is T1, DPAGT1 (Homo sapiens, UniProt Q9H3H5).
T1 sequence (Q9H3H5 1-408): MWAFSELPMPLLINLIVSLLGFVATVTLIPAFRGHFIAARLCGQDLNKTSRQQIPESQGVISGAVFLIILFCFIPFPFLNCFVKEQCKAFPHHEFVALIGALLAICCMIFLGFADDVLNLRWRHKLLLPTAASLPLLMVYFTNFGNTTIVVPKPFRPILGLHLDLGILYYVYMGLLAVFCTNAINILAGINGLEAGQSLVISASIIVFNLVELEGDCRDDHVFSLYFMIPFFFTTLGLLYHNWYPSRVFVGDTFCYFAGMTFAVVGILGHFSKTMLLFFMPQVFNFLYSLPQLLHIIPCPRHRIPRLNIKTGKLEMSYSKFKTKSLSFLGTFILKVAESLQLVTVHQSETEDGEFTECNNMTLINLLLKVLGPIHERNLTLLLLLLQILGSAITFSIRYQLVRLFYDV
Nature of the assay: Heat-induced denaturation assay of DPAGT1 with bound ligand. The assay is classed as binding. To be noted: heat-induced denaturation; DPAGT1 alone 51.7 ± 0.2 °C. The text has this:
The structure of DPAGT1 in complex with the archetypal scaffold natural product tunicamycin[21] […] Trp122 moves so as to use its indole moiety to hydrophobically provide a binding “cap” or “lid” over the proximal portion of the 10′-N lipid chain.

In assay [2] the target is T2, DPAGT1 (Homo sapiens, UniProt Q9H3H5).
T2 construct: full-length DPAGT1 bearing an additional tobacco etch virus (TEV) protease-cleavable N-terminal His6 tag; His6 with TEV protease cleavage site ([…]/S leader) (N, cleaved yes); made in house; host or cells: Spodoptera frugiperda Sf9 insect cells (baculovirus, pFB-LIC-Bse vector)
T2 sequence (Q9H3H5 with tags, fused parts or gaps): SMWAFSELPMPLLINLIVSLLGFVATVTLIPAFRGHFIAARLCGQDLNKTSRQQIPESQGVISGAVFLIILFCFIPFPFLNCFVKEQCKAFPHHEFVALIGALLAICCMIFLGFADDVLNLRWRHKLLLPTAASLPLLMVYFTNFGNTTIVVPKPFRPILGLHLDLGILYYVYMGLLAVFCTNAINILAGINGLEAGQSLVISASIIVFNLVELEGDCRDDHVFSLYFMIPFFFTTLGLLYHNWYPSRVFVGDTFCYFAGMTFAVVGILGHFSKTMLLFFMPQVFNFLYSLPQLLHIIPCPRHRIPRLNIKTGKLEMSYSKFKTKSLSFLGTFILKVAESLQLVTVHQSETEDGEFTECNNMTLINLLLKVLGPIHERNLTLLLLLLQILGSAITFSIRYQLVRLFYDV
The assay can be described thus: DPAGT1 radiometric in vitro activity assay (end point, phosphorimaging of radio-TLC). Type of assay: biochemical. To be noted: for % Activity of DPAGT1 in the presence of a tunicamycin analogue compared to a negative control (GFB): Table S1, analogue 1 µM, DPAGT1 1 µM, dolichyl monophosphate 50 µM, UDP-GlcNAc(1-14C) 50 µM, 37 °C, 21 min, three biological replicates; for DPAGT1 inhibition (in words): inhibitor 1 µM, enzyme:inhibitor 1:1, substrates 50 µM. From the text:
Figure 2 Design, synthesis and in vitro inhibitory activity of lipid-altered tunicamycins. (A) Structure of DPAGT1 in complex with tunicamycin[21] showing key interactions primarily along TMH5 that in concert with a Trp122 “lid” create the lipid-engagement site (blue). This engagement contrasts with a small, gated pocket below bounded primarily by Leu293 in which only smaller moieties (here an acetamide) are accommodated (red). (B) Guided by this structure, as an apparent snapshot of a Michaelis complex-like mode of binding, modulation at two acyl sites in the core scaffold was explored. […] Semisynthesis allowed generation of graduated lipid tunicamycin analogues through regiochemical differentiation in carbamoylation to generate two key divergent intermediates: Tun-0E,0G and Tun-0E,2G. Subsequent differential acylations allow for generation of both symmetric and asymmetric Tun-XE,YG analogues. Reagents and conditions: (a) Ac2O, pyridine; (b) Boc2O, DMAP, THF; (c) NaOMe, MeOH; (d) 4 M HCl in dioxane, MeOH; (e) HATU, DIPEA, octanoic acid, DMF; (f) HATU, DIPEA, carboxylic acid; (g) HATU, DIPEA, 2 × carboxylic acid. (C) Residual % in vitro activity of DPAGT1 following incubation with analogues [DPAGT1 ([…]), MgCl2 (5 mM), Tun analogue ([…]), dolichol phosphate ([…]), and UDP-GlcNAc(1-^14C) ([…]) in 1% OGNG/CHS/cardiolipin] was assessed through end point assay at 37 °C via phosphorimaging. These were determined on the basis of three biological replicates, each using three technical replicates. Error bars shown are standard deviations.
The intended targeting and graduated modulation of DPAGT1’s PNPT activity was assessed in vitro using a highly pure recapitulated source. Briefly, full-length DPAGT1 bearing an additional tobacco etch virus (TEV) protease-cleavable N-terminal His6 tag was expressed using a baculovirus (DH10Bac)/insect cell (Spodoptera frugiperda Sf9) system using a pFB-LIC-Bse expression vector. DPAGT1 is an integral transmembrane enzyme, and thus, after harvesting and lysis, protein was extracted from the expression host membrane fraction using octyl glucose neopentyl glycol (OGNG) (1% w/v) and cholesterylhemisuccinate (CHS) (0.1% w/v) before isolation and purification by immobilized metal affinity chromatography (IMAC) using a Co^2+-charged (“TALON”) resin and elution with an imidazole gradient. To ensure that there were no confounding effects of the His6 tag, this was then cleaved with TEV protease followed by reverse IMAC and size exclusion chromatography in sequence.
Radiometric bisubstrate analyses allowed excellent sensitivity under the conditions necessary for proper recapitulation of the activity. Purified DPAGT1 (1 μM) was incubated with both substrates, dolichol monophosphate and radiolabeled UDP-N-acetyl-D-[1-^14C]glucosamine, at 50 μM, and the activity was determined directly by end point phosphor detection of product dolichol-PP-N-acetyl-D-[1-^14C]glucosamine formation.
MgCl2, 10 mM imidazole (pH 8.0), 200 mM NaCl , 2 mM TCEP (added fresh), 5% Glycerol, 0.18% OGNG, 0.01 8% CHS, 0.0036% cardiolipin) and the protein was eluted with WB supplemented with 250 mM imidazole (pH 8.0). The eluted protein was desalted using PD-10 columns (GE Healthcare) pre-equilibrated with gel filtration buffer (GFB: 20 mM HEPES (pH […]
cardiolipin). Desalted protein was subsequently treated with 10:1 TEV protease (w:w, protein:enzyme) overnight at 4 ° C. The TEV protease treated protein was separated from the 6-His-tagged enzymes and uncleaved DPAGT1 by incubation for 1 h with Talon resin (prepared as described above) at 4 °C for 1 h. The resin was collected in a column, the flowthrough collected and the protein sample was centrifuged at 21,500 rpm in a Beckman TA25.5 rotor for 10 min at 4 ° C. The supernatant was then concentrated to 0.5 mL using a 30 kDa cutoff PES concentrator (Corning), with mixing every 5 mins during concentration. The […]

In the next assay the test system is His-tagged IgG-Fc domain. The assay can be described thus: In cell glycoprotein inhibition assay (IgG-Fc expression, SDS-PAGE and Western blot). The assay is classed as cell-based, human. To be noted: HEK293T cells, 3 days, analogue 10 µM down to 0.5 nM (Tun-8E,2G 300 µM down to 15 nM), Figure S13. (Immunoblotting shows a protein as a band on a membrane.)
In another assay the test system is ATF4. Nature of the assay: ATF4 high-content imaging assay in primary human dermal fibroblasts. Type of assay: cell-based. To be noted: 6 h, Figures S8–S12. On the procedure: A targeted panel of tunicamycin analogues was tested in the ATF4 High Content Imaging assay to assess their ER stress generating ability in a primary cell line. Normal adult human dermal fibroblasts (NHDF-Ad, Lonza) were plated in a 96-well Phenoplate (PerkinElmer) at a seeding density of 10,000 cells per well in fibroblast growth medium (containing fibroblast basal medium, 10% FBS, 0.1% insulin, 0.1% hFGF-B, 0.1% Gentamicin/Amphotericin) and incubated at 37°C, 5% CO2. Treatment with pre-diluted compounds was performed after 24 hrs with final concentrations ranging from 10 µM – 5 nM (final DMSO concentration was 0.3%). Low control (0.3% DMSO final conc.) and high control (0.3 µM tunicamycin final conc.) wells were again included for assay normalization. Treated cells were incubated for 6 hrs at 37°C, 5% CO2 before fixing (4% PFA in PBS, 20 min at room temperature followed by washing (3x) with PBS). Direct ATF4 immunofluorescence staining was then performed, whereby cells were treated with a Coralite Plus 488-conjugated ATF4 Polyclonal antibody (CL488-10835, Proteintech) in a 1:100 dilution of Perm-block buffer (10% FBS, 0.3% TritonX-100 in PBS) for 2 hrs. Nuclei staining was then performed with DRAQ5 dye (ab108410, Abcam) at 1:1000 in PBS. Plates were imaged on a Leica SP8 confocal microscope equipped with 488 nm and 633 nm excitation and images were analysed using script-based algorithms as described for HEK cells above. […]

On to dolichol-1-phosphate [Dol-1-P], for which the “Tm,1/2 of DPAGT1 bound to ligand” value at DPAGT1 [1] worked out at 58.5 ± 0.3 °C.

On to `CCCCCCCCC(=O)N[C@H]1[C@@H](O[C@@H]2O[C@H](C[C@@H](O)[C@H]3O[C@@H](n4ccc(=O)[nH]c4=O)[C@H](O)[C@@H]3O)[C@H](O)[C@H](O)[C@H]2NC(=O)CC(C)C)O[C@H](CO)[C@@H](O)[C@@H]1O` [Tun-i5E,9G], for which, at DPAGT1 [2], the “% Activity of DPAGT1 in the presence of a tunicamycin analogue compared to a negative control (GFB)” value worked out at 90.7% and the “DPAGT1 inhibition (in words)” value is listed as “little to no significant inhibition”.

On to `CCCCCCCC(=O)N[C@H]1[C@H](O[C@H]2O[C@H](CO)[C@@H](O)[C@H](O)[C@H]2NC(=O)CCCCCCC)O[C@H](C[C@@H](O)[C@H]2O[C@@H](n3ccc(=O)[nH]c3=O)[C@H](O)[C@@H]2O)[C@H](O)[C@@H]1O` [Tun-8E,8G], for which, in the assay on His-tagged IgG-Fc domain, the “glycosylation state of expressed IgG-Fc (in words)” value is reported as “expression of intact glycosylated protein”. The “increase in ATF4 (in words)” value with ATF4 is on record as “only Tun itself leads to an increase in ATF4”. On DPAGT1 [2], the “% Activity of DPAGT1 in the presence of a tunicamycin analogue compared to a negative control (GFB)” value worked out at 90.0% and the “DPAGT1 inhibition (in words)” value is reported as “little to no significant inhibition”.

Take `CCCCCCCCC(=O)N[C@H]1[C@H](O[C@H]2O[C@H](CO)[C@@H](O)[C@H](O)[C@H]2NC(=O)CCC)O[C@H](C[C@@H](O)[C@H]2O[C@@H](n3ccc(=O)[nH]c3=O)[C@H](O)[C@@H]2O)[C@H](O)[C@@H]1O` [Tun-9E,4G]: on DPAGT1 [2], the “% Activity of DPAGT1 in the presence of a tunicamycin analogue compared to a negative control (GFB)” value amounted to 83.6% and the “DPAGT1 inhibition (in words)” value was “did not cause a significant reduction in DPAGT1 activity”.
